We go through 16 compounds from PubChem BioAssay (NCI).

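Briefly, cells in 96-well plates were exposed to five compound concentrations for 48 h, and endpoints were estimated by linear interpolation. TGI marks complete inhibition of growth.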 A value given as a limit tells only on which side of the number the result lay.

What all share (experiment): growth of human tumour cells (NCI), 48 h
Assay [1] deals with NCI-H522 lung.
In assay [2] the test system is COLO 205 colon.
Assay [3] concerns T-47D breast.
In assay [4] the test system is ACHN renal.
Assay [5] has as its system IGROV1 ovarian.
Assay [6] has as its system HCC-2998 colon.
Assay [7] concerns HS 578T breast.
Assay [8] relates to HCT-116 colon.
For assay [9], the system named is SK-OV-3 ovarian.
Assay [10] concerns SF-295 CNS.
The subject of assay [11] is SNB-75 CNS.
Assay [12] has as its system SN12C renal.
For assay [13], the system named is HT29 colon.
The subject of assay [14] is NCI-H460 lung.

For the compound `Cc1nc2c(sc3nc4ccccc4n32)c(=O)[nH]1`, the TGI in assay [1], in [2], in assay [3], in assay [4], in assay [5] and in [6] was more than 100 µM in each case. In addition, the TGI in assay [7], in [8], in [9], in [10] and in assay [11] was more than 100 µM in each case.

As to `CNC(=O)c1[nH]cnc1/N=N/N(C)N`, the TGI in assay [1], in [2], in assay [12], in assay [3], in [13] and in assay [5] was more than 100 µM throughout. The TGI in [6], in assay [7], in assay [8], in assay [9], in assay [10] and in assay [11] was more than 100 µM in each case. This compound gave a TGI in assay [14] of more than 100 µM.

Regarding `COC(=O)c1c(C)cccc1/C=C1\Cc2cc(C)cc(C)c2C1=O`, the TGI in assay [1], in [12], in [3], in assay [4], in [13] and in assay [5] was more than 100 µM each time. For the same compound, the TGI is more than 100 µM in [6]; 69.7 µM in assay [7]; more than 100 µM in assay [8]; more than 100 µM in assay [10]; 38.4 µM in [11]; more than 100 µM in [14].

Regarding `CC1(C)CC(=O)c2c(nc3ccc4ccccc4c3c2-c2ccc(NC(=O)CCC(=O)Nc3ccc(-c4c5c(nc6ccc7ccccc7c46)CC(C)(C)CC5=O)cc3)cc2)C1`, the TGI in assay [1], in assay [2], in assay [12], in assay [3], in assay [4] and in assay [13] was more than 100 µM throughout. For the same compound, the TGI in assay [5], in assay [7], in assay [8], in [9], in assay [10] and in assay [11] was more than 100 µM in each case. In assay [14], the TGI was more than 100 µM.

On to `CC1C[C@]2(C)C(=O)N(c3ccccc3)C(=N)[C@@H]2N(C)c2ccccc21` (some centres not stated), for which the TGI in [1], in assay [2], in assay [12], in assay [3], in assay [4] and in assay [13] was more than 100 µM throughout. For the same compound, the TGI in assay [5], in assay [6], in [7], in assay [8], in assay [10] and in assay [11] was more than 100 µM in each case. The TGI in assay [14] is more than 100 µM.

For the compound `CCC1C(c2cc(OC)c(OC)c(OC)c2)c2cc3c(cc2OC1N1CCOCC1)OCO3` (configuration not stated), the TGI is 21.8 µM in [1]; 22.4 µM in assay [2]; 28.6 µM in [12]; 61.8 µM in assay [3]; 16.1 µM in assay [4]; 7.36 µM in assay [13]. In addition, the TGI in [5] was 17.4 µM; in [7], 28.9 µM; in assay [8] it was 13.4 µM; in assay [9], 23.4 µM; in [10], 8.52 µM; in assay [11] it was 26.3 µM. Also, in assay [14], the TGI came to 12.3 µM.

As for `CCC(=O)O[C@H]1CC[C@H]2[C@@H]3CCC4=C/C(=N/NC(=O)c5cccc6c(=O)c7ccccc7[nH]c56)CC[C@]4(C)[C@H]3CC[C@]12C`, the TGI in assay [1], in assay [2], in [12], in [3], in assay [4] and in [13] was more than 25 µM throughout. Further, the TGI in assay [5], in assay [6], in [7], in [9], in [10] and in [11] was more than 25 µM in each case. The TGI in [14] is more than 25 µM.

For `COc1ccccc1N1CCN(Cn2c(=O)oc3cccnc32)CC1`, the TGI in assay [1], in [3], in assay [4], in assay [13], in [5] and in [6] was more than 100 µM throughout. Further, the TGI in assay [7], in assay [8], in assay [9], in assay [10], in [11] and in [14] was more than 100 µM each time.

In the case of `CC1(C)Oc2ccc3c(=O)cc(-c4ccc(F)cc4)oc3c2C1C(=O)O` (configuration not stated), the TGI in assay [1], in assay [2], in assay [12], in assay [3], in [13] and in assay [5] was more than 100 µM throughout. Further, the TGI in [6], in [7], in assay [8], in assay [9] and in assay [10] was more than 100 µM each time.

Consider `N#Cc1ccc(OCc2nc3cc(C(F)(F)F)ccc3nc2-c2ccccc2)cc1`, for which the TGI in assay [1], in assay [2], in assay [12], in assay [3], in assay [4] and in [13] was more than 100 µM in each case. Further, the TGI in assay [5], in assay [6], in assay [7], in [8], in assay [10] and in assay [11] was more than 100 µM throughout. The compound further registered a TGI in assay [14] of more than 100 µM.

Turning to `COC(=O)/C=c1/c2ccccc2n2nc3ccccc3c12`, the TGI in assay [1], in assay [2], in assay [12], in assay [3], in [4] and in [13] was more than 100 µM throughout. Further, the TGI in assay [5] is more than 100 µM; in [6], more than 100 µM; in [7] it was more than 100 µM; in [8], more than 100 µM; in [9], 61.3 µM; in assay [10], more than 100 µM. Besides, the TGI in assay [14] is more than 100 µM.

Turning to `O=S1C2=C(Cc3ccccc3)C(Cc3ccccc3)=C1CCc1cccc(c1)CC2`, the TGI in assay [1] stood at 27.6 µM; in assay [2] it was 58.8 µM; in assay [12], 30.6 µM; in assay [3], 44.8 µM; in [4], 30.8 µM; in assay [13], 26 µM. Besides, the TGI came out at 27.5 µM in assay [6]; 48.8 µM in assay [7]; 21.5 µM in [8]; 24.3 µM in assay [9]; 27.1 µM in assay [10]; 27.8 µM in assay [11]. In addition, in assay [14], the TGI came out at 26.8 µM.

Regarding `CC12Cc3cc4c(cc3C1(c1ccc([N+](=O)[O-])cc1)OCCO2)OCO4` (configuration not stated), the TGI in [1], in assay [2], in assay [12], in [3], in [4] and in [13] was more than 100 µM each time. Also, the TGI in [5] was 85.1 µM; in assay [6] it was more than 100 µM; in [7], 86.4 µM; in assay [8], more than 100 µM; in assay [9], 47.6 µM; in [10], 57.7 µM. The compound further came in with a TGI in [14] of more than 100 µM.

Regarding `O=C(CSCC(=O)N/N=C\c1ccc(-c2ccccc2)cc1)N/N=C\c1ccc(-c2ccccc2)cc1`, the TGI in assay [1] is 37.2 µM; in [2] it was more than 100 µM; in assay [12] it was 53.6 µM; in assay [3] it was more than 100 µM; in assay [4], 55.9 µM; in assay [13], 76.6 µM. Besides, the TGI in [5] is 29.2 µM; in assay [7], 49.8 µM; in assay [8] it was 21.4 µM; in assay [9] it was 38.9 µM; in assay [10], 40.9 µM; in assay [11], 41.6 µM. The TGI in assay [14] was more than 100 µM.

On to `C=CC[C@H](C)CCC(=O)N1[C@H]2CC3CC[C@@]2(CS1(=O)=O)C3(C)C`, for which the TGI in [1] was 99 µM; in [2], more than 100 µM; in assay [12], more than 100 µM; in [3], more than 100 µM; in assay [4], more than 100 µM; in [13], 49 µM. Besides, the TGI in [5], in assay [6], in assay [7], in [8], in [9] and in assay [10] was more than 100 µM each time. This compound also showed a TGI in assay [14] of more than 100 µM.

For the compound `Clc1ccc(C2NN=C3c4ccccc4OCC32)cc1` (configuration not stated), the TGI was 3.63 µM in [1]; 12.4 µM in assay [2]; 22.1 µM in [12]; 54.3 µM in [3]; more than 100 µM in [4]; 12.2 µM in [13]. Besides, the TGI in [5] is 22.3 µM; in assay [6], 13.5 µM; in [7] it was 14.6 µM; in assay [8], more than 36.4 µM; in [9] it was more than 100 µM; in assay [11], more than 100 µM. In assay [14], the TGI came to 25.8 µM.
